Measurements: PMC7154053, “Chemical, Metabolic, and Cellular Characterization of a FtsZ Inhibitor Effective Against Burkholderia cenocepacia” (Frontiers in Microbiology, 2020)
≈ marks a conversion by molar mass, not a printed value. Like-named read-outs stand apart in the source and are kept apart here.

B1: B. cenocepacia nitroreductase BCAL0539 (BcNR) (Burkholderia cenocepacia J2315) (protein)
chain: MSVPTASPRVDADAIRSVDTVDAALKSRRAIRAFLPTPVLRDTLEAILEAASRAPSGTNIQPWRVYVATGATRDALAAALTAAYDDPARDEKYVAEYDYYPREWVSPYIDRRRKVGWDLYGLLNIGRDEKARMHAQHARNFRFFDAPVALFFTLDRVMTLGAWLDCGMFLQGVMTAARARGLDTCPQAAFVPFHRIVAEHLDIPANEQLVCGMSLGHADPDAIENRLVTERASVAEFARFFA

Experiments:
B. cenocepacia J2315 = test: MIC, 2-fold microdilution, resazurin method; assay type: cell-based, Burkholderia cenocepacia; details: for MIC: Burkholderia cenocepacia; for activity compared with C109, in words: SAR statements, against both bacteria and the purified enzyme
Protocol: (§1) Burkholderia cenocepacia strains, Escherichia coli ATCC 25922, Pseudomonas aeruginosa PAO1, and Staphylococcus aureus ATCC 25923 were grown in Luria-Bertani (LB) medium (Difco), if not differently specified, with shaking at 200 rpm, or on LB agar, at 37°C.
(§2) The microtiter plates were incubated at 37°C for 48 (for B. cenocepacia) or 24 h (for all the other strains) and growth was determined by the resazurin method (Martin et al., [2006]). A solution of resazurin sodium salt (Sigma Aldrich) was prepared at 0.01% in distilled water and filter-sterilized. Thirty microliter of resazurin solution were added to each well after 1 or 2 days of incubation at 37°C, and the microtiters were re-incubated at the same temperature for 4 h. The MIC was defined as the lowest concentration of the drug that prevented a change in color from blue to pink, which indicates bacterial growth.
(§3) Three independent biological replicates were used for each MIC determination.

E. coli ATCC 25922 = test: MIC, 2-fold microdilution, resazurin method; assay type: cell-based; details: Escherichia coli
Protocol: as §1, §2, §3

P. aeruginosa PAO1 = test: MIC, 2-fold microdilution, resazurin method; assay type: cell-based; details: Pseudomonas aeruginosa
Protocol: as §1, §2, §3

S. aureus ATCC 25923 = test: MIC, 2-fold microdilution, resazurin method; assay type: cell-based, Staphylococcus aureus; details: for spectrum of activity, in words: S. aureus vs Gram-negative species; for MIC: Staphylococcus aureus
Protocol: as §1, §2, §3

[1] = target: Burkholderia cenocepacia purified FtsZ protein (Burkholderia cenocepacia, UniProt B4E5Y7); test: biochemical; assay type: biochemical; details: for Inhibition of Bc FtsZ At 100 μM: 100 μM compound; for Inhibition of Bc FtsZ At 100 μM / Inhibits B. cenocepacia FtsZ GTPase at 100µM?: Yes/No; for Inhibits B. cenocepacia FtsZ GTPase at 100µM?: Supplementary Table 1
Burkholderia cenocepacia purified FtsZ protein, sequence (B4E5Y7 entry or part of it): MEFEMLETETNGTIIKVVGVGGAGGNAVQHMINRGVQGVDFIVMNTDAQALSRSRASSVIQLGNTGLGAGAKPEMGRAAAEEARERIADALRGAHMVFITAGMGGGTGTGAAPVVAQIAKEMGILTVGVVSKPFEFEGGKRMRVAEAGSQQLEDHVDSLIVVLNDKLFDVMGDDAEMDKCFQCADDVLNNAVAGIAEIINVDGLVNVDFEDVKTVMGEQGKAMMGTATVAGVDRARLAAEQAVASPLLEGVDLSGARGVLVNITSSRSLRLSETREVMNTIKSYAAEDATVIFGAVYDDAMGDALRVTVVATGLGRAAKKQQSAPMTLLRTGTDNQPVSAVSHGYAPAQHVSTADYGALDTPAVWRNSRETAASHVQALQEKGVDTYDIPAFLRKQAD
Protocol: All the recombinant FtsZ proteins were expressed at 20°C overnight in E. coli BL21(DE3) cells, upon induction with 0.5 mM IPTG, and purified using the same protocol assessed for the wild-type B. cenocepacia FtsZ (Hogan et al., [2018]).
GTPase enzyme activity was determined using a pyruvate kinase/L-lactic dehydrogenase (PK/LDH) spectrophotometric coupled assay (Ingerman and Nunnari, [2005]). The assays were performed at 30°C, in a reaction mixture containing […] Hepes pH 7.5, 5 mM MgCl2, 5 mM KCl, 10 U PK/LDH, 0.25 mM NADH, 0.25 mM PEP, and 5–10 μM FtsZ, and initiated by the addition of 0.5 mM GTP. Alternatively, GTPase activity was determined by measuring the release of phosphate using the malachite green assay (Baykov et al., [1988]).
(1) A[I]=A[0]×(1-[I]/[I]+IC50)
where A[I] is the enzyme activity at inhibitor concentration [I] and A[0] is the enzyme activity without inhibitor.

B. cenocepacia FCF19 = test: MIC, 2-fold microdilution, resazurin method; assay type: cell-based, Burkholderia cenocepacia; details: clinical isolate FCF19
Protocol: as §1, §2, §3

B. cenocepacia FCF22 = test: MIC, 2-fold microdilution, resazurin method; assay type: cell-based, Burkholderia cenocepacia; details: clinical isolate FCF22
Protocol: as §1, §2, §3

[2] = substrate: COC(=O)CSc1ccc2nsnc2c1[N+](=O)[O-]; test: BcNR nitroreductase steady-state kinetics (NADPH decrease at 340 nm); assay type: biochemical, Burkholderia cenocepacia; details: other: compound as substrate of BcNR; pH 8.0; 37.0 °C
Protocol: (§4) The reaction mixture typically contained 50 mM potassium phosphate pH 8.0, 50 mM KCl, 5–10 μM BcNR, and reactions were started by adding the substrate. Steady-state kinetics parameters were determined by assaying the enzyme at variable concentrations of substrate (10–500 μM). The experiments were performed in triplicate, and the kinetic constants Km and kcat determined by fitting the data to the Michaelis-Menten equation using Origin 8 software.

[3] = substrate: O=C(O)c1ccc([N+](=O)[O-])cc1; test: as above; assay type: biochemical, Burkholderia cenocepacia; details: other: compound as substrate of BcNR; pH 8.0; 37.0 °C
Protocol: as §4

[4] = J2315, LB, 48 h, read-out: MIC B. cenocepacia J2315
[5] = J2315, Supplementary Table 1, read-out: MIC (µg/ml) B. cenocepacia J2315
[6] = ATCC25922, LB, 24 h, read-out: MIC E. coli 25922
[7] = ATCC25922, Supplementary Table 1, read-out: MIC (µg/ml) E. coli 25922
[8] = PAO1, LB, 24 h, read-out: MIC P. aeruginosa PAO1
[9] = PAO1, Supplementary Table 1, read-out: MIC (µg/ml) P. aeruginosa PAO1
[10] = ATCC25923, LB, 24 h, read-out: MIC S. aureus 25923
[11] = ATCC25923, Supplementary Table 1, read-out: MIC (µg/ml) S. aureus 25923

Molecule | MIC (B. cenocepacia J2315; [4]) [µg/mL] | MIC (B. cenocepacia J2315; [5]) [µg/mL] | MIC (E. coli ATCC 25922; [6]) [µg/mL] | MIC (E. coli ATCC 25922; [7]) [µg/mL] | MIC (P. aeruginosa PAO1; [8]) [µg/mL] | MIC (P. aeruginosa PAO1; [9]) [µg/mL] | MIC (S. aureus ATCC 25923; [10]) [µg/mL] | MIC (S. aureus ATCC 25923; [11]) [µg/mL] | IC50 [1] [µM] | Inhibition of Bc FtsZ At 100 μM [1] | Inhibits B. cenocepacia FtsZ GTPase at 100µM? [1] | melting point [°C] | activity compared with C109, in words (B. cenocepacia J2315) | also measured
COc1cc(SC#N)c2nsnc2c1[N+](=O)[O-] [compound 11126009] | > 128 | > 128 | > 512 | > 512 | > 128 | > 128 | 8 (≈ 29.8 µM) | 8 (≈ 29.8 µM) | 4 | Yes | Yes | 143 to 145 | – | spectrum of activity, in words (S. aureus ATCC 25923): showed activity only against S. aureus
CCOC(=O)CCSc1ccc2nsnc2c1[N+](=O)[O-] [compound 10226047] | > 512 | > 512 | > 512 | > 512 | > 128 | > 128 | > 512 | > 512 | – | No | No | 89 to 91 | completely loss of activity | –
O=[N+]([O-])c1c(N=C=S)ccc2nsnc12 [compound 10026149] | – | – | 16 (≈ 67.2 µM) | – | 16 (≈ 67.2 µM) | – | 2 (≈ 8.39 µM) | – | – | Yes | Yes | 185 to 187 | – | MIC (B. cenocepacia FCF19; Burkholderia cenocepacia): 64 µg/mL (≈ 269 µM); MIC B. cenocepacia FCF19 (B. cenocepacia FCF19): resistance; MIC (B. cenocepacia FCF22; Burkholderia cenocepacia): 256 µg/mL (≈ 1070 µM); MIC B. cenocepacia FCF22 (B. cenocepacia FCF22): resistance; MIC (B. cenocepacia J2315; J2315, 48 h, read-out: MIC (µg/ml) B. cenocepacia J2315): 32 µg/mL (≈ 134 µM); MIC (B. cenocepacia J2315; J2315, 48 h, read-out: MIC B. cenocepacia J2315): 32 µg/mL (≈ 134 µM); MIC (E. coli ATCC 25922; ATCC25922, 24 h, Supplementary Table 1, read-out: MIC (µg/ml) E. coli 25922): 16 µg/mL (≈ 67.2 µM); MIC (P. aeruginosa PAO1; PAO1, 24 h, Supplementary Table 1, read-out: MIC (µg/ml) P. aeruginosa PAO1): 16 µg/mL (≈ 67.2 µM); MIC (S. aureus ATCC 25923; ATCC25923, 24 h, Supplementary Table 1, read-out: MIC (µg/ml) S. aureus 25923): 2 µg/mL (≈ 8.39 µM); IC50 ([1]; read-out: Inhibition of Bc FtsZ IC50, GTPase activity): 20 µM
O=[N+]([O-])c1c(Sc2ncc[nH]2)ccc2nsnc12 [compound 11726256] | 128 (≈ 458 µM) | 256 (≈ 917 µM) | 128 (≈ 458 µM) | 128 (≈ 458 µM) | > 256 | > 256 | 8 (≈ 28.6 µM) | 8 (≈ 28.6 µM) | > 100 | – | Yes | 213 to 215 | – | spectrum of activity, in words (S. aureus ATCC 25923): showed activity only against S. aureus
COC(=O)CSc1cc(SCC(=O)OC)c2nsnc2c1[N+](=O)[O-] [compound 11726258] | 256 (≈ 657 µM) | 256 (≈ 657 µM) | > 256 | > 256 | > 256 | > 256 | 256 (≈ 657 µM) | 256 (≈ 657 µM) | 15 | Yes | Yes | 141 to 143 | – | –
COC(=O)C[S+]([O-])c1ccc2nsnc2c1[N+](=O)[O-] (stereo not shown) [compound 11726257] | 16 (≈ 53.1 µM) | 16 (≈ 53.1 µM) | 8 (≈ 26.6 µM) | 8 (≈ 26.6 µM) | 128 (≈ 425 µM) | 128 (≈ 425 µM) | 8 (≈ 26.6 µM) | 8 (≈ 26.6 µM) | 3 | Yes | Yes | 179 to 181 | activity on B. cenocepacia similar to C109 | –
COC(=O)CS(=O)(=O)c1ccc2nsnc2c1[N+](=O)[O-] [compound 11826109] | 256 (≈ 807 µM) | 256 (≈ 807 µM) | 128 (≈ 403 µM) | 128 (≈ 403 µM) | > 256 | > 256 | 16 (≈ 50.4 µM) | 16 (≈ 50.4 µM) | 30 | Yes | Yes | 123 to 125 | loss of activity | –
CCOC(=O)C(C)Sc1ccc2nsnc2c1[N+](=O)[O-] (stereo not shown) [compound 11826110] | 16 (≈ 51.1 µM) | 16 (≈ 51.1 µM) | 32 (≈ 102 µM) | 32 (≈ 102 µM) | > 256 | > 256 | 32 (≈ 102 µM) | 32 (≈ 102 µM) | > 100 | No | No | 153 to 155 | partially lost activity | –
B1 | – | – | – | – | – | – | – | – | – | – | – | – | – | Km [2]: 80 ± 5 µM; Vmax [2]: 71.9 µmol/min/mg; kcat [2]: 165 ± 5.9 s⁻¹; kcat/Km [2]: 2.064e+06 ± 20100 M⁻¹ s⁻¹; Km [3]: 200 ± 21 µM; Vmax [3]: 7.6 µmol/min/mg; kcat [3]: 17.5 ± 1.4 s⁻¹; kcat/Km [3]: 87500 ± 8100 M⁻¹ s⁻¹
